Data: the kinase profiling compilation of Christmann-Franck et al. (2016)

Tests used:
Assay in all cases: radiometric filter-binding kinase assay, Kinase HotSpot
Settings in all cases: compound 0.5 µM; ATP 10 µM
[1] = biological target: EPHA3 (human) (UniProt P29320)
[2] = biological target: NTRK3 (human) (UniProt Q16288)
[3] = biological target: FYN (human) (UniProt P06241)
[4] = biological target: MAPK3 (human) (UniProt P27361)
[5] = biological target: AKT3 (human) (UniProt Q9Y243)
[6] = biological target: CDK5 CDK5R1 p25 (human) (UniProt Q00535+Q15078)
[7] = biological target: STK17A (human) (UniProt Q9UEE5)
[8] = biological target: CLK3 (human) (UniProt P49761)
[9] = biological target: ADRBK1 (human) (UniProt P25098)
[10] = biological target: IGF1R (human) (UniProt P08069)
[11] = biological target: PIM2 (human) (UniProt Q9P1W9)
[12] = biological target: PRKCI (human) (UniProt P41743)
[13] = biological target: MARK4 (human) (UniProt Q96L34)
[14] = biological target: CHUK (human) (UniProt O15111)
[15] = biological target: TBK1 (human) (UniProt Q9UHD2)
[16] = biological target: PRKX (human) (UniProt P51817)
[17] = biological target: FGFR3 (human) (UniProt P22607)
[18] = biological target: NTRK1 (human) (UniProt P04629)
[19] = biological target: MAP3K10 (human) (UniProt Q02779)
[20] = biological target: CSNK1E (human) (UniProt P49674)
[21] = biological target: MAPK12 (human) (UniProt P53778)
[22] = biological target: CDK9 CCNT1 (human) (UniProt P50750+O60563)
[23] = biological target: NUAK1 (human) (UniProt O60285)
[24] = biological target: WNK3 (human) (UniProt Q9BYP7)
[25] = biological target: RIPK2 (human) (UniProt O43353)
[26] = biological target: TSSK2 (human) (UniProt Q96PF2)
[27] = biological target: PLK1 (human) (UniProt P53350)
[28] = biological target: RPS6KA1 KD1 KD2 (human) (UniProt Q15418)
[29] = biological target: CAMK1 (human) (UniProt Q14012)
[30] = biological target: ERBB2 (human) (UniProt P04626)
[31] = biological target: HIPK2 (human) (UniProt Q9H2X6)
[32] = biological target: NTRK2 (human) (UniProt Q16620)
[33] = biological target: MAP4K5 (human) (UniProt Q9Y4K4)
[34] = biological target: MAPK11 (human) (UniProt Q15759)
[35] = biological target: PAK4 (human) (UniProt O96013)
[36] = biological target: MAPK13 (human) (UniProt O15264)
[37] = biological target: PRKCH (human) (UniProt P24723)
[38] = biological target: CDC42BPA (human) (UniProt Q5VT25)
[39] = biological target: PTK2 (human) (UniProt Q05397)
[40] = biological target: AKT2 (human) (UniProt P31751)
[41] = biological target: TYK2 JH1 catalytic (human) (UniProt P29597)
[42] = biological target: PRKCA (human) (UniProt P17252)

Chain of RIPK2 (human) (O43353 whole entry, looked up): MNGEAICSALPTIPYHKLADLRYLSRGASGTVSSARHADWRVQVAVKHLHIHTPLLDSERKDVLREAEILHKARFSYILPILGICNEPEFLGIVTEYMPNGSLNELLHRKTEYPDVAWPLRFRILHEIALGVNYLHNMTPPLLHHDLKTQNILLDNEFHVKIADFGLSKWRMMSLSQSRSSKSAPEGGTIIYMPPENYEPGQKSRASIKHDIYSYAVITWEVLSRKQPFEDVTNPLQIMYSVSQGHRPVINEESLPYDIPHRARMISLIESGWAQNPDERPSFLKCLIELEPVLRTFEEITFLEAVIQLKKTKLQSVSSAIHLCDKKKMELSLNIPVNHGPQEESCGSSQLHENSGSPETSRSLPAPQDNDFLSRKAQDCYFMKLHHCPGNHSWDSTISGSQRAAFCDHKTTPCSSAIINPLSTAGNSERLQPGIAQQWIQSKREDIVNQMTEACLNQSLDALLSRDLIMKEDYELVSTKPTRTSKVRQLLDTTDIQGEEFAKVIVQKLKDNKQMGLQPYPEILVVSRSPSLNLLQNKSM
Chain of WNK3 (human) (Q9BYP7 whole entry, looked up): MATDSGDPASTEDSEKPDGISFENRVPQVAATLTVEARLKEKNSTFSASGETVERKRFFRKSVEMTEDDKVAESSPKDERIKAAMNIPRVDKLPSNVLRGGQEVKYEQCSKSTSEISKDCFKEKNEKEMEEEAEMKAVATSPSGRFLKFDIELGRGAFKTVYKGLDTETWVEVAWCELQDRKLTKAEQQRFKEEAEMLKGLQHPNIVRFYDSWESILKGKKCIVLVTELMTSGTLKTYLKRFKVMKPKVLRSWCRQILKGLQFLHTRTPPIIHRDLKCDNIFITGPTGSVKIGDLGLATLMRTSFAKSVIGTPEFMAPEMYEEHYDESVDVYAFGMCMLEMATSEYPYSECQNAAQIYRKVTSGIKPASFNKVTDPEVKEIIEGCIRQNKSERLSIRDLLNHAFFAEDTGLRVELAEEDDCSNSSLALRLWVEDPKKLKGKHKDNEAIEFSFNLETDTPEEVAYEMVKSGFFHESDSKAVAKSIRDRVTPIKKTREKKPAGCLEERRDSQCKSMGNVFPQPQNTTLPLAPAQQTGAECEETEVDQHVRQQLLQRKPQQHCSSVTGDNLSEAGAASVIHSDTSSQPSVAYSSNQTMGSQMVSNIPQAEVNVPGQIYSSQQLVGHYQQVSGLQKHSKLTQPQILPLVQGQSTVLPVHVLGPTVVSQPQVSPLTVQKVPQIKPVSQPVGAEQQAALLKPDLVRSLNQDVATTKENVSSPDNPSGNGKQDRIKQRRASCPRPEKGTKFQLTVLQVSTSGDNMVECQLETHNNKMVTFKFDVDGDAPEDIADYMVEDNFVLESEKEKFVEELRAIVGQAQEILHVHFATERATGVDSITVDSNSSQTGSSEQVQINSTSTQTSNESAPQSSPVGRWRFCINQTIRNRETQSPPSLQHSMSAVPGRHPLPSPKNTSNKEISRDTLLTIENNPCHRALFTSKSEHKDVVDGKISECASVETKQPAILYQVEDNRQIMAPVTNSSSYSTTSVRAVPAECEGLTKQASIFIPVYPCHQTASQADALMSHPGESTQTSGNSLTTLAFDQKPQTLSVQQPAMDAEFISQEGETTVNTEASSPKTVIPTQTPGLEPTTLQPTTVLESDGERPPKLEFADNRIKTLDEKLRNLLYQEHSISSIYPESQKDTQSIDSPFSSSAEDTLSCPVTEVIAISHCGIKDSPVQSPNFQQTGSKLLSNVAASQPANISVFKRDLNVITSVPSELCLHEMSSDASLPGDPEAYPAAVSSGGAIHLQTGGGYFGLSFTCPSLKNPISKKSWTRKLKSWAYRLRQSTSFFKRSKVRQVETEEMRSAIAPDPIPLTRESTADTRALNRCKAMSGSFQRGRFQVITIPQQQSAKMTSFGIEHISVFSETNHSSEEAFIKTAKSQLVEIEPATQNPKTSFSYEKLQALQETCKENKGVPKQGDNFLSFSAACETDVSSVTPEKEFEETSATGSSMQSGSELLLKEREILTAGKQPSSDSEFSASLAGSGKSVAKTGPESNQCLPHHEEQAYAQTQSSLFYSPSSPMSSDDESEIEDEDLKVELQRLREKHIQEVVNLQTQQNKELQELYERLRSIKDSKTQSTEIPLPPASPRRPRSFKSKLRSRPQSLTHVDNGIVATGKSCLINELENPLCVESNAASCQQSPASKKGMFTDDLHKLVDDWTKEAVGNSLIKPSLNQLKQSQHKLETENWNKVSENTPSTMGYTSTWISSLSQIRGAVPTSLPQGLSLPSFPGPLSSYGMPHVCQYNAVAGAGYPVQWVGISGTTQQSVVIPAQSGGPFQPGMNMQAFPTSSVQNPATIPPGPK
Chain of NTRK1 (human) (P04629 whole entry, looked up): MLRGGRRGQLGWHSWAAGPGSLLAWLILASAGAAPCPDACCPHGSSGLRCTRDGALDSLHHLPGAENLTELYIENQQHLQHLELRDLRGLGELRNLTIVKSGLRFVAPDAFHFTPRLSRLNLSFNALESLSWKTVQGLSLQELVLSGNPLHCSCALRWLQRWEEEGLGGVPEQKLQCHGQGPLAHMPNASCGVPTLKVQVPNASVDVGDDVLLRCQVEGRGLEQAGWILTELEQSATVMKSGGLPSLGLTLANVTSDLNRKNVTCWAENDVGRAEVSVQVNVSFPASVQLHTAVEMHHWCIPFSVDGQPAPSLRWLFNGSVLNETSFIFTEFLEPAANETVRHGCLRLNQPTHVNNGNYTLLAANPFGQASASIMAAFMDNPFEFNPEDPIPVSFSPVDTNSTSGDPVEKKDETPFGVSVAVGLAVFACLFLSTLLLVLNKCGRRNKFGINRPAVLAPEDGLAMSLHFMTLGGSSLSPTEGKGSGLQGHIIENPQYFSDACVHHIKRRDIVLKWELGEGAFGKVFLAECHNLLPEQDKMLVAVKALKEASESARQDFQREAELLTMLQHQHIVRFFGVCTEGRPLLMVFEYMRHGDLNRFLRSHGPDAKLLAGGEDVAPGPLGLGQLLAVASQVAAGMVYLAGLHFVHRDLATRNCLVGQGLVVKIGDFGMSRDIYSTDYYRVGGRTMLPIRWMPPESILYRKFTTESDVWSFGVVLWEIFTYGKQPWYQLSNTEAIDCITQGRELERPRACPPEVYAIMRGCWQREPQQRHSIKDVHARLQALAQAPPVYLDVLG
Chain of CLK3 (human) (P49761 whole entry, looked up): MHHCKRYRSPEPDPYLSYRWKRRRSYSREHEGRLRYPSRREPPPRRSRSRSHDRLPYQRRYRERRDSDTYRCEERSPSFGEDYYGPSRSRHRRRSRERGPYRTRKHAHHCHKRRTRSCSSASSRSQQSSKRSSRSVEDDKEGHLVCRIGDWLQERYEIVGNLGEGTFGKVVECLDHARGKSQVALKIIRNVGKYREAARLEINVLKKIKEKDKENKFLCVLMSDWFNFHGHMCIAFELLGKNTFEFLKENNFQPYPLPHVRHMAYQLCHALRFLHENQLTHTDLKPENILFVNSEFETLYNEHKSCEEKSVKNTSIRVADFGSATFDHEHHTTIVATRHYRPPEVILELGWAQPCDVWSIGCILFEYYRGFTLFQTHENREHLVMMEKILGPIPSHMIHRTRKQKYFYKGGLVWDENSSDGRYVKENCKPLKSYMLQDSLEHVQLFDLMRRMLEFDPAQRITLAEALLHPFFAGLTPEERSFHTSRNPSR
Chain of MAPK13 (human) (O15264 whole entry, looked up): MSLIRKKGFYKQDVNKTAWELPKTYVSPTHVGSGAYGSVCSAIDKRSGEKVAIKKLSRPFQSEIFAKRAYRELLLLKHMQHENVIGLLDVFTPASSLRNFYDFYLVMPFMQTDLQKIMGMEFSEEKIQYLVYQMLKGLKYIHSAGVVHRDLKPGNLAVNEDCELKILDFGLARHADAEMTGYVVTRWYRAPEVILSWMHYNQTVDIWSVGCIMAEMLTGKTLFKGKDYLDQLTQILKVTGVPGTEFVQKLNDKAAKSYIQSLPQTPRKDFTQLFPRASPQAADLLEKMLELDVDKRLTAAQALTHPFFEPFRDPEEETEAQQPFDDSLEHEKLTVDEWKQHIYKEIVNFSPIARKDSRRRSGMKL
Chain of CAMK1 (human) (Q14012 whole entry, looked up): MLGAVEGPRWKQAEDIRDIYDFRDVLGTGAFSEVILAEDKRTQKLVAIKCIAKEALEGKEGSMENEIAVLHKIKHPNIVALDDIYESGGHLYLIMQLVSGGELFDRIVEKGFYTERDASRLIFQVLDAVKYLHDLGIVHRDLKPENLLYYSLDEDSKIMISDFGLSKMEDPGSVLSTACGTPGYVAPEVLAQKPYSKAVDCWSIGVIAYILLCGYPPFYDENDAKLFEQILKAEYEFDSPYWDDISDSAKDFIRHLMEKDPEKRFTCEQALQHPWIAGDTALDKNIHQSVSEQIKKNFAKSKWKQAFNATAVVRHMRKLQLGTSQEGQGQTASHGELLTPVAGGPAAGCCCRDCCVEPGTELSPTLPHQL
Chain of MAPK3 (human) (P27361 whole entry, looked up): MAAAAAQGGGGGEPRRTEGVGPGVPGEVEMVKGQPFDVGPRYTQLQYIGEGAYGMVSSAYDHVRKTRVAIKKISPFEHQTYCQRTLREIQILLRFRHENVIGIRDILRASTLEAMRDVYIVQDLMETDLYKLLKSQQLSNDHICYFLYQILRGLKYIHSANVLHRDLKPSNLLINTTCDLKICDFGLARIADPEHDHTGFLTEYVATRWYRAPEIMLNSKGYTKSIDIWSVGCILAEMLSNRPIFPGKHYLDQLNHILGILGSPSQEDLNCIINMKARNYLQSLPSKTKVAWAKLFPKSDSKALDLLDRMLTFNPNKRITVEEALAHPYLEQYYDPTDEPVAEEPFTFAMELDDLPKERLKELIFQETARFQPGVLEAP
Chain of PIM2 (human) (Q9P1W9 whole entry, looked up): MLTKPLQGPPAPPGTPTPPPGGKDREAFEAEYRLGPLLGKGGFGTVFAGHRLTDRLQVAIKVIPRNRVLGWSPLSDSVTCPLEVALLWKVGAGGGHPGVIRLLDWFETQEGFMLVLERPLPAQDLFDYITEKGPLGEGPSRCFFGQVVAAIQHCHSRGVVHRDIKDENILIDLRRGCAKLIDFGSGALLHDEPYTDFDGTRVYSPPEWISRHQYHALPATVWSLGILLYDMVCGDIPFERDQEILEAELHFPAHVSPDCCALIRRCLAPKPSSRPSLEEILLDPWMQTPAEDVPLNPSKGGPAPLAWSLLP

Cc1ccc(NC(=O)c2ccc(CN3CCN(C)CC3)cc2)cc1Nc1nc(-c2cccnc2)cs1
residual activity [1]: 90.3%
residual activity [2]: 94.1%
residual activity [3]: 37.3%
residual activity [4]: 103%
residual activity [5]: 102%
residual activity [6]: 104%
residual activity [7]: 104%
residual activity [8]: 93.6%
residual activity [9]: 121%
residual activity [10]: 101%
residual activity [11]: 118%
residual activity [12]: 93.7%
residual activity [13]: 101%
residual activity [14]: 96.2%
residual activity [15]: 97%
residual activity [16]: 99.5%
residual activity [17]: 94.3%
residual activity [18]: 97.1%
residual activity [19]: 102%
residual activity [20]: 98.8%
residual activity [21]: 96.9%
residual activity [22]: 99.2%
residual activity [23]: 110%
residual activity [24]: 99.9%
residual activity [25]: 108%
residual activity [26]: 102%
residual activity [27]: 101%
residual activity [28]: 97.2%
residual activity [29]: 102%
residual activity [30]: 103%
residual activity [31]: 90.8%
residual activity [32]: 101%
residual activity [33]: 97%
residual activity [34]: 102%
residual activity [35]: 103%
residual activity [36]: 101%
residual activity [37]: 102%
residual activity [38]: 104%
residual activity [39]: 98.6%
residual activity [40]: 103%
residual activity [41]: 101%
residual activity [42]: 110%

COc1cc2nccc(Oc3ccc(NC(=S)NC(=O)c4ccccc4C)cc3)c2cc1OC
residual activity [1]: 105%
residual activity [2]: 86.1%
residual activity [3]: 77.4%
residual activity [4]: 106%
residual activity [5]: 95.9%
residual activity [6]: 93.2%
residual activity [7]: 82.3%
residual activity [8]: 93.2%
residual activity [9]: 95.6%
residual activity [10]: 92.1%
residual activity [11]: 117%
residual activity [12]: 99.9%
residual activity [13]: 73.3%
residual activity [14]: 98.3%
residual activity [15]: 103%
residual activity [16]: 100%
residual activity [17]: 88.8%
residual activity [18]: 82.5%
residual activity [19]: 91%
residual activity [20]: 95.1%
residual activity [21]: 96.8%
residual activity [22]: 104%
residual activity [23]: 82.5%
residual activity [24]: 101%
residual activity [25]: 89.2%
residual activity [26]: 86.7%
residual activity [27]: 97.9%
residual activity [28]: 97.3%
residual activity [29]: 101%
residual activity [30]: 102%
residual activity [31]: 99.2%
residual activity [32]: 102%
residual activity [33]: 11.1%
residual activity [34]: 89.3%
residual activity [35]: 100%
residual activity [36]: 101%
residual activity [37]: 95.1%
residual activity [38]: 93.9%
residual activity [39]: 90.7%
residual activity [40]: 102%
residual activity [41]: 88.5%
residual activity [42]: 91.3%

CC(C)n1cnc2c(Nc3cccc(Cl)c3)nc(NCCO)nc21
residual activity [1]: 90.3%
residual activity [2]: 30.7%
residual activity [3]: 60.4%
residual activity [4]: 111%
residual activity [5]: 99.9%
residual activity [6]: 26.2%
residual activity [7]: 96.8%
residual activity [8]: 77.8%
residual activity [9]: 96%
residual activity [10]: 90%
residual activity [11]: 97%
residual activity [12]: 101%
residual activity [13]: 88.1%
residual activity [14]: 96.1%
residual activity [15]: 89.2%
residual activity [16]: 96.4%
residual activity [17]: 95.1%
residual activity [18]: 98.2%
residual activity [19]: 90.3%
residual activity [20]: 65.4%
residual activity [21]: 102%
residual activity [22]: 87.4%
residual activity [23]: 67.3%
residual activity [24]: 77.7%
residual activity [25]: 84.3%
residual activity [26]: 107%
residual activity [27]: 44.1%
residual activity [28]: 69.1%
residual activity [29]: 71.2%
residual activity [30]: 96.2%
residual activity [31]: 93.3%
residual activity [32]: 66.1%
residual activity [33]: 81.5%
residual activity [34]: 92.2%
residual activity [35]: 105%
residual activity [36]: 99%
residual activity [37]: 99.4%
residual activity [38]: 83.9%
residual activity [39]: 68.9%
residual activity [40]: 92.4%
residual activity [41]: 105%
residual activity [42]: 78.6%
